Consider one compound from patent publication US12195804B2, “Treatment of squamous cell carcinoma” (Board of Regents, The University of Texas System, priority 2018, dated 2025).

What all share (type): cell-based, human
Assay [1] deals with HNSCC cell lines. Description: CellTiter-Glo cell viability assay. The settings on record: 0-200 nM, 72 hours. The method, then: Cell viability assay. […] A CellTiter-Glo luminescent cell viability assay (Promega, Madison, WI) was performed as described previously (Castel et al., 2016; Muellner et al., 2011). Inhibitory concentration (ICs) and area under the curve (AUC) values were calculated using the drexplorer R package with a best-fit dose-response model (Zumsteg et al., 2016). The combination indices were calculated using the Chou-Talalay method (Cal et al., 2017) in CalcuSyn (Biosoft, Cambridge, UK). We tested the reproducibility and robustness of the data generated using three quality control parameters as described previously (Bohnacker et al., 2017). These parameters were the concordance correlation coefficient, location shift, and maximum standard deviation between two biological replicates for three technical and two biological replicates. Based on heuristics from our previous screening studies in lung cancer (Bohnacker et al., 2017), the cut-offs for reproducibility were a concordance correlation coefficient greater than 0.8, a location shift less than 0.9, and a standard deviation less than 0.23 based on the normal mixture fit model. Experiments not satisfying these criteria were repeated. The replicate with the smallest experimental variation measured by the median of standard deviation was chosen as a representative of the replicates, and its IC values served as the final values for subsequent analysis.
Cell lines were classified as sensitive based on IC70 values less than the peak plasma concentration for each drug. To determine if cross-comparison of the PI3K/mTOR inhibitors as a class was feasible, their drug sensitivity patterns were compared with those of three cell cycle kinase inhibitors tested previously (Zhang et al., 2017). The PI3K/mTOR pathway inhibitors clustered separately from the cell cycle inhibitors (FIG. 12C).

In assay [2] the test system is HNSCC cell lines. Description: Apoptosis assays (Annexin V/propidium iodide, BrdU TUNEL, cleaved PARP/caspase 3). Particulars: 50 nM. As to the method: (§1) FIGS. 7A-7D: PI3K/mTOR signaling inhibition induces cell death in NOTCH1^MUT but not NOTCH1^WT head and neck squamous cell carcinoma (HNSCC) cell lines in vitro. FIG. 7A. Annexin V/propidium iodide or BrDU-terminal deoxynucleotidyl transferase (TdT) dUTP nick-end labeling (TUNEL) assays were used to measure apoptosis in HNSCC cells with the indicated NOTCH1 and PIK3CA mutations, which were treated with 50 nM GSK2126458 (GSK212) for 24 or 48 hours, respectively. Values are the means±standard deviations of three independent experiments. *p<0.05, unpaired two-tailed Student t-test. FIG. 7B. Western blotting of cleaved PARP (Cl-PARP) and cleaved caspase 3 (Cl-Caspase 3) levels in mutant and wild type cells after GSK212 treatment for 48 hours. FIG. 7C. NOTCH1^MUT and NOTCH1^WT HNSCC cells were plated sparsely and treated with GSK212 at the indicated concentrations for 48 hours. At 14-21 days after treatment, the cells were fixed and stained, images were captured using the GelCount Tumour Colony Counter, and colony numbers and the colorimetric intensity of the colonies were determined by measuring the optical density (OD) at 570 nm. Values are the means±standard deviations of three independent experiments. *p<0.001, unpaired two-tailed Student t-test. FIG. 7D. Three NOTCH1^WT lines (black text and bars) and three NOTCH1^MUT lines (red text and bars) were treated with increasing concentrations of GSK212 for 4 hours, and levels of PI3K/mTOR pathway proteins were measured by Western blot analysis.
Western blot analysis. Western blot analysis was performed as described previously (Ferrarotto et al., 2016). In brief, cells were lysed with ice-cold lysis buffer, and the lysates were centrifuged at 20,000×g for 10 minutes at 4° C. Cell samples containing equal amounts of protein were resolved using sodium dodecyl sulfate-polyacrylamide gel electrophoresis, transferred to nitrocellulose membranes, and immunoblotted with different primary antibodies. Protein expression was detected using a horseradish peroxidase-conjugated secondary antibody (Bio-Rad, Hercules, CA) and electrochemiluminescence reagent (Amersham Biosciences, Pittsburg, PA).
Apoptosis and cell cycle assays. To measure apoptosis, we performed terminal deoxynucleotidyl transferase dUTP nick end labeling (TUNEL) staining with an APO-BRDU Kit (BD Biosciences, San Jose, CA) and Annexin V/propidium iodide staining with an FITC Annexin V Apoptosis Detection Kit (BD Pharmingen, San Diego, CA) as described previously (Chandarlapaty et al., 2011). […] Data were acquired with a three-laser, 10-color Gallios flow cytometer (Beckman Coulter, Brea, CA) and analyzed using Kaluza software (Beckman Coulter, Brea, CA). […]

In assay [3] the test system is HNSCC cell lines. Nature of the assay: Colony formation assay. The settings on record: 48 hours treatment, 14-21 days, NOTCH1MUT compared with NOTCH1WT lines, below peak plasma concentration. As to the method:
as §1, with “Western blotting of cleaved PARP (Cl-PARP) and cleaved caspase 3 (Cl-Caspase 3) levels in mutant and wild type cells after GSK212 treatment for 48 hours. FIG. 7C. NOTCH1^MUT and NOTCH1^WT HNSCC cells were plated sparsely and treated with GSK212 at the indicated concentrations for 48 hours.” left out, “Values are the means±standard deviations of three independent experiments. *p<0.001, unpaired two-tailed Student t-test. FIG. 7D.” left out
Colony formation assays. […] The total colony number and area were counted and analyzed using the ImageJ software program (National Institutes of Health, Bethesda, MD). […]

Assay [4] has as its system HNSCC cell lines. Description: Cell cycle analysis (BrdU/7-AAD flow cytometry). The settings on record: 50 nM. As to the method:
FIGS. 16A-16C: Effects of PI3K/mTOR signaling inhibition on the survival of NOTCH1MUT and NOTCH1WT head and neck squamous cell carcinoma (HNSCC) cell lines in vitro. FIG. 16A. The Annexin V/propidium iodide assay was used to assess apoptosis in HNSCC cells that had the indicated NOTCH1 and PIK3CA mutations and were treated with 500 nM BAY806946. Values are the means {plus minus} standard deviations of three independent experiments. […], unpaired two-tailed Student t-test. FIG. 16B. NOTCH1MUT lines (red text) and NOTCH1WT lines (black text) were treated with increasing concentrations of BAY806946 for 3 hours, and then Western blotting was used to assess levels of p-AKT (S473). FIG. 16C. NOTCH1WT lines (black text), NOTCH1MUT lines (red text), and PIK3CAMUT lines (blue text) were treated with 50 nM GSK2126458 (GSK212) and then pulse-labeled with BrDU and counterstained with 7-AAD for flow cytometry.
Apoptosis and cell cycle assays. […] Data were acquired with a three-laser, 10-color Gallios flow cytometer (Beckman Coulter, Brea, CA) and analyzed using Kaluza software (Beckman Coulter, Brea, CA). […]
(Flow cytometry measures light scatter and fluorescence of single cells or particles in a stream.)

Assay [5] relates to PI3K/mTOR pathway proteins. Nature of the assay: Western blot of PI3K/mTOR pathway proteins. Particulars: 4 hours, NOTCH1WT and NOTCH1MUT lines. As to the method: as §1, with “Western blotting of cleaved PARP (Cl-PARP) and cleaved caspase 3 (Cl-Caspase 3) levels in mutant and wild type cells after GSK212 treatment for 48 hours. FIG. 7C. NOTCH1^MUT and NOTCH1^WT HNSCC cells were plated sparsely and treated with GSK212 at the indicated concentrations for 48 hours.” left out, “Values are the means±standard deviations of three independent experiments. *p<0.001, unpaired two-tailed Student t-test. FIG. 7D.” left out
Western blot analysis. […] Protein expression was detected using a horseradish peroxidase-conjugated secondary antibody (Bio-Rad, Hercules, CA) and electrochemiluminescence reagent (Amersham Biosciences, Pittsburg, PA).
(In general: In western blotting, separated proteins are transferred to a membrane and probed.)

As to `COc1ncc(-c2ccc3nccc(-c4ccnnc4)c3c2)cc1NS(=O)(=O)c1ccc(F)cc1F` [GSK2126458], the “cell viability, NOTCH1MUT and NOTCH1WT cell lines” value in the assay on HNSCC cell lines [1] is recorded as “differential effects”. Further, the “apoptosis in PDK1-overexpressing versus parental lines” value with HNSCC cell lines [2] (24 or 48 hours, NOTCH1MUT cells overexpressing PDK1) was “decreased apoptosis”. The apoptosis result in the assay on HNSCC cell lines [2] (24 or 48 hours, NOTCH1MUT lines) was “induced significant apoptosis”; with HNSCC cell lines [2] (two NOTCH1WT/PIK3CAWT and three NOTCH1WT/PIK3CAMUT lines), “no apoptosis was detected”. Moreover, in the assay with HNSCC cell lines [3], the “number of colonies formed and total cell number” value was “significantly reduced”. Moreover, the sub-G0 fraction result in the assay on HNSCC cell lines [4] is listed as “increased the sub-G0 fraction in only NOTCH1^MUT lines”. Also, the G1 arrest result with HNSCC cell lines [4] (all cell lines) was “induced G1 arrest in all cell lines”. Further, the “target inhibition (PI3K/mTOR pathway proteins)” value in assay [5] was “dose-dependent target inhibition”.
